What was measured:
murine CD31 = test: Murine CD31 immunofluorescence of xenograft tumors (angiogenesis); type: in vivo, mouse; conditions: CHLA-255-luc/monocyte tumors
From the text: (FIG. 17A) Tumors recovered from mice in FIG. 16 were snap frozen in OTC media, thin sectioned, and stained for murine CD31 expression (red) and DAPI counterstain (blue). Results shown are representative images from five fields of view (FOVs) per tumor, with five tumors per group. Scale bar 50 μm. (FIG. 17B) Total number of CD31+ regions per FOV with box and whisker plot showing quartiles±range (Ctrl n=15, Etan n=25). (FIG. 17C) Size of each CD31+ area quantified per FOV; shown is median CD31+ area per FOV with box and whisker plot showing quartiles±range (Ctrl n=15, Etan n=25) (FIG. 17D) Longest distance across each CD31+ area (Max Feret distance) per FOV; shown is median distance per FOV with box and whisker plot showing quartiles±range (Ctrl n=15, Etan n=25). (FIG. 17E) Eukaryotic mRNA-seq was performed on tumor samples, and mouse transcripts were excluded from analysis by XenoFilterR program. Differentially regulated genes were identified using two-fold expression difference and adjusted P value<0.05 as cutoffs.
Tumors from in vivo experiments were snap-frozen in OTC Media (Tissue-Tek, VWR) and cryo-sectioned into 5 μm thin sections (Texas Children's Hospital Histology Core, Houston, Tex.). Samples were fixed and permeabilized in ice-cold acetone for 10 minutes at −20 C and blocked in TBS containing 5% normal goat serum (CST) and 1% BSA (Sigma) for 2 hours at RT. Rat anti-mouse CD31 primary antibody (Invitrogen, clone 390) was diluted 1:10 in staining buffer (TBS, 1% NGS, 1% BSA) overnight at 4 C. […] Slides were counterstained with 1 μg/mL DAPI (BD Biosciences) for five minutes and mounted with fluorescence mounting media (Fluoromount G, Invitrogen). […] Images were processed and analyzed using FIJI/ImageJ software (NIH). To quantify CD31+ staining, images were thresholded (default, 1800 MIN, Infinity MAX), converted to binary, and analyzed using the FIJI/ImageJ “Analyze Particle” function excluding regions smaller than 25 μm2. […]

CHLA-255-luc = test: NB luminescence growth/viability in monocyte co-culture; type: cell-based, human; conditions: 10 μg/mL etanercept
Method: (FIG. 8A) Luciferase expressing CHLA-255-luc and SK-NAS-luc were cultured in 1-16,000 pg/mL rhTNF for 48 hours and viability of the cells was measured by luminescence. Data was normalized to untreated control and graphed as % Viability versus Log10 of TNF concentration.
(15A) TNFα level within co-culture supernatant was determined by TNFα ELISA. Mean TNFα concentration±SD of representative data from two monocyte donors run in triplicate. (FIG. 15B) Supernatant IL-6 levels were determined by ELISA. Mean IL-6 concentration±SD of representative data from two monocyte donors run in triplicate (FIG. 15C) Intracellular IκBα expression level within CD14+GD2− monocyte population was determined by flow cytometry and IκBα MFI was normalized to monocyte only control. Mean normalized IκBα MFI±SD and representative from experiments with two monocyte donors run in triplicate. (FIG. 15D) Intracellular IκBα expression level within CD14-GD2+NB population was determined by flow cytometry and IκBα MFI was normalized to NB only control. Mean normalized IκBαMFI±SD, representative from experiments with two monocyte donors run in triplicate. (FIG. 15E) Multiplex Luminex cytokine assay was performed on co-culture supernatants. […] NB luminescence was used to evaluate relative viability of cell line. Results are normalized mean luminescence±SD, n=6 replicates per condition. […] Cells undergoing multiple (2+) divisions were quantified as a percentage of total cells and normalized to NB (0) and Ctrl (1). […]
Monocytes were directly cultured with wild-type or TNF, TNFR1, TNFR2 KO NB cell lines in ULA plates for 24 hours. Activation of NF-kB in monocytes and NB was measured by flow cytometry and cytokine production measured by ELISA from co-culture supernatant. To evaluate the contact-dependence of monocyte activation by NB, monocytes were cultured in ULA plates with seven-day NB conditioned medium mixed 1:1 with complete monocyte medium for 24 hours and analyzed for IL-6 production. […] Luminescence was measured using a TECAN Spark plate reader (TECAN). […] CellTrace Violet expression was analyzed by flow cytometry.

[1] = tested on: cytokines/chemokines in CHLA-255-monocyte co-cultures; test: Multiplex Luminex cytokine array on co-culture supernatants; type: cell-based, human; conditions: CHLA-255 + monocytes, 10 μg/mL etanercept, 24 hours

etanercept
vessel formation by CD31 immunofluorescence (murine CD31; vs IgG control): failed to form distinct vessels
average area of CD31+ regions per FOV (murine CD31; vs control): significantly smaller
vessel length (maximum linear distance across CD31+ regions) (murine CD31; vs control): significantly shorter
monocyte-induced proliferation above baseline (luminescence) (CHLA-255-luc; CHLA-255-luc + monocytes, 72 hours (FIG. 8B)): reduces this
NB luminescence (growth/viability) increase induced by monocytes (CHLA-255-luc; CHLA-255-luc + monocytes, 72 hours, vs IgG control (FIG. 15F)): completely abrogated the effect of monocytes on NB cells
effect of monocyte-induced TNF signaling on NB cells (CHLA-255-luc; CHLA-255-luc and SK-N-AS-luc + monocytes, 72 hours (FIG. 8B)): reversed the effect of monocyte-induced TNF signaling on NB cells
induction/upregulation of G-CSF, GM-CSF, IL-1α, IL-1β, IL-6, IL-10, IL-12-p40, IP-10, MIP-1β [1]: completely reversed the induction/upregulation of all nine cytokines/chemokines
